Values quoted from earlier work as cited in US20140170287A1, “METHODS FOR PREPARING AND COMPOSITIONS COMPRISING PLANT SEED-BASED OMEGA-3 FATTY ACIDS” (Living Healthy World LLC, priority 2012, published 2014).

Tested on: C-reactive protein (CRP)
Settings: consumption of ALA in flaxseeds; CRP as marker of the inflammatory status in the cardiovascular system

## CC/C=C\C/C=C\C/C=C\CCCCCCCC(=O)O [ALA, alpha-linolenic acid]
  decrease of blood levels of C-reactive protein (CRP): 10-15%
